Where two headings read alike, the source gives them in different places.
How the values were obtained:
Type in all cases: biochemical
FLT3 = FLT3 (Homo sapiens (Human), UniProt P36888); assay: FLT3 kinase test (Z'-LYTE)
Procedure: The activity of FLT3 is measured using the Z′-LYTETM assay technology from Invitrogen (#PV3191)
The reaction is started by addition of 2.5 μl of the 4×ATP solution.
Positive controls are reaction mixtures containing no test compound; negative controls (blanks) are reaction mixtures containing no kinase. As a further control, the phosphopeptide solution is added to wells without kinase (=100% phosphorylation control).
The reaction is performed for 1 h at room temperature before 5 μl of the development solution is added. After a further incubation for 1 h at room temperature 5 μl of the stop reagent is added.
The output text file is evaluated in an “MS-Excel—VB-Makro” and “GraphPadPrism” (Version 5) (GraphPad Software Inc.) is used to calculate the results. Data for the inhibition of FLT3 are reported in M. data for the inhibition of the protease are reported in % CTL.

[1] = target: Recombinant human Aurora B (amino acids 1-344) (Homo sapiens (Human), UniProt Q96GD4); assay: Aurora B kinase test (ADP Glo luminescence)
Chain of Recombinant human Aurora B (amino acids 1-344) (Q96GD4 whole entry, the tested form may be a part): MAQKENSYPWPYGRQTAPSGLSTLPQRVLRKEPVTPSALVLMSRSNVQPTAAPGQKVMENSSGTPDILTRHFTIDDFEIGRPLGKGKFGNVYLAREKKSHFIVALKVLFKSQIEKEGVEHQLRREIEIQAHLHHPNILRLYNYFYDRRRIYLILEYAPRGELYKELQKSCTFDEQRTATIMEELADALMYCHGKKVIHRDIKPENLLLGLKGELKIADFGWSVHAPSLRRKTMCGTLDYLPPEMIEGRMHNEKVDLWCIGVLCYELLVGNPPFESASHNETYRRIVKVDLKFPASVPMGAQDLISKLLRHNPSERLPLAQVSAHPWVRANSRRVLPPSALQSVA
Procedure: The activity of the Aurora B kinase protein was determined using the ADP Glo® Luminescence Kinase test (Promega; V9103X).
Serial Dilution is done in 1:10 steps in 100% DMSO.
Then 20 μl Kinase detection mix (Detection Buffer #V913B Promega; Kinase Detection Substrate #V914B Promega) were added and incubated for 40 minutes at room temperature.
(§1) The output file of the reader is a csv file that contains the well number and measured RLU. For data evaluation and calculation, the measurement of the negative control was set as 0% ctrl and the measurement of the positive control was set as 100% ctrl. Based on this values the % value for the measurement of each substance concentration was calculated using an Assay Explorer software (Accelrys). Normally, the % ctrl values calculated are between 0% and 100% values but may also occur outside these limits in individual cases based on variability or compound characteristics. The IC50 values were calculated from the % ctrl values using Assay Explorer software. Calculation: [y=(a−d)/(1+(x/c)^b)+d], a=low value, d=high value; x=conc M; c=IC50 M; b=hill; y=% ctrl.

[2] = target: Recombinant human Syk (amino acids 342-635), GST-Syk kinase fusion protein (Homo sapiens (Human), UniProt P43405); assay: Syk kinase test (Kinase Glo luminescence)
Procedure: as §1, with “measured relative light units (RLU).” for “measured RLU.”, “as 100%” for “as 0%”, “as 0%” for “as 100%”, “software. Calculation:[y=(a−d)/(1+(x/c)^b)+d]” for “software. Calculation: [y=(a−d)/(1+(x/c)^b)+d],”

[3] = Table 1, read-out: FLT3-inhibition IC50-value
[4] = Table 1, read-out: AURB-inhibition IC50-value
[5] = Table 1, read-out: SYK-inhibition IC50-value

Chain of FLT3 (P36888 27-993): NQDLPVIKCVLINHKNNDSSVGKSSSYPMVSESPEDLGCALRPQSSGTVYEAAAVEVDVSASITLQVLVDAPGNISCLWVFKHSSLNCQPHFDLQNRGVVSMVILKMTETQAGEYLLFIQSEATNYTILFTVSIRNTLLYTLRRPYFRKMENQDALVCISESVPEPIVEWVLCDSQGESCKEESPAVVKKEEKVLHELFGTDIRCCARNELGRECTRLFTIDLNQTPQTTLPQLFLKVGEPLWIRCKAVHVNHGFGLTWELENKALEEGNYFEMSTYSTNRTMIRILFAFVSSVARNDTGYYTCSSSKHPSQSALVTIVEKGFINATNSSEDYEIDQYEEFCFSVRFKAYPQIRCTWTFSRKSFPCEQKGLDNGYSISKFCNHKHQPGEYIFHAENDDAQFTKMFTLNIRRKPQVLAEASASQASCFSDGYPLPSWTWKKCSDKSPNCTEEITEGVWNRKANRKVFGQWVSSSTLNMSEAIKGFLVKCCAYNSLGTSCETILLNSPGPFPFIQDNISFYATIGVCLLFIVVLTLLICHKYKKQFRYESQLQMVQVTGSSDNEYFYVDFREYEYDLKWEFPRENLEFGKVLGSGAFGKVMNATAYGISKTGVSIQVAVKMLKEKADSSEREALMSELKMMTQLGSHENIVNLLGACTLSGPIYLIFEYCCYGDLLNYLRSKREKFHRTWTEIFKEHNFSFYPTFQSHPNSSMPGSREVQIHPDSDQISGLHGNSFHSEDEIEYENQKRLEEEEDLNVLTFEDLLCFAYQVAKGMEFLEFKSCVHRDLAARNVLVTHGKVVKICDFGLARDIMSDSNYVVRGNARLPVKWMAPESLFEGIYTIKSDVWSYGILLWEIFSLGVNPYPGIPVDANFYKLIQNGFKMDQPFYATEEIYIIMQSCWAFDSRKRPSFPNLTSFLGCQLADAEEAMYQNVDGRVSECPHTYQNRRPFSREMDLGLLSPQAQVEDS

Row | IC50 (FLT3; read-out: IC50 in μM (FLT3-Inhibition)) [µM] | IC50 ([1]; read-out: IC50 in μM (AURB-Inhibition)) [µM] | IC50 ([2]; read-out: IC50 in μM (SYK-Inhibition)) [µM] | IC50 (FLT3; [3]) [µM] | IC50 [1, 4] [µM] | IC50 [2, 5] [µM] | Compound | IC50 ([1]; read-out: AURB-inhibition IC50-value) [µM]
1 | 0.267 | 0.298 | 0.001 |  |  |  | C[C@@H](Oc1cc(-c2ccc3c(c2)ncn3C)cc2ncccc12)[C@H]1CNC(=O)C1 [94 of WO 2013/014060] | 
2 |  |  |  | 17.4 | > 50 | 0.0466 | C[C@@H](Oc1nc(-c2cnn(C3CCCCO3)c2)cc2nn(C)cc12)[C@H]1CNC(=O)C1 (some centres unmarked) [Example 3] | 
3 |  |  |  | 5.77 | 37.3 | 0.0147 | C[C@@H](Oc1nc(-c2cnn(C3CCCCC3)c2)cc2nn(C)cc12)[C@H]1CNC(=O)C1 [Example 7, (R)-4-((R)-1-(6-(1-cyclohexyl-1H-pyrazol-4-yl)-2-methyl-2H-pyrazolo[4,3-c]pyridin-4-yloxy)ethyl)pyrrolidin-2-one] | 
4 |  |  |  | 3.67 | > 50 | 0.0424 | C[C@@H](Oc1nc(-c2cnn(C3CCNCC3)c2)cc2nn(C)cc12)[C@H]1CNC(=O)C1 [Example 9, (4R)-4-[(1R)-1-[2-Methyl-6-[1-(4-piperidyl)pyrazol-4-yl]pyrazolo[4,3-c]pyridin-4-yl]oxyethyl]pyrrolidin-2-one] | 
5 |  |  |  | 8.03 | 36 | 0.0218 | C[C@@H](Oc1nc(-c2cnn(C3CCC(F)(F)CC3)c2)cc2nn(C)cc12)[C@H]1CNC(=O)C1 [Example 10, (4R)-4-[(1R)-1-[6-[1-(4,4-Difluorocyclohexyl)pyrazol-4-yl]-2-methyl-pyrazolo[4,3-c]pyridin-4-yl]oxyethyl]pyrrolidin-2-one] | 
6 |  |  |  | 37.4 | > 50 | 0.935 | C[C@@H](Oc1nc(-c2cc3nn(C)cc3c(O[C@H](C)[C@H]3CNC(=O)C3)n2)cc2nn(C)cc12)[C@@H]1CNC(=O)C1 [Example 11, (4S)-4-[(1R)-1-[2-methyl-6-[2-methyl-4-[(1R)-1-[(3R)-5-oxopyrrolidin-3-yl]ethoxy]-pyrazolo[4,3-c]pyridin-6-yl]pyrazolo[4,3-c]pyridin-4-yl]oxyethyl]pyrrolidin-2-one] | 
7 |  |  |  | 8.33 | 34.1 | 0.0123 | C[C@@H](Oc1nc(-c2cnn([C@H]3CC[C@H](N4CCN(C)C(=O)C4)CC3)c2)cc2nn(C)cc12)[C@H]1CNC(=O)C1 [Example 12, 1-methyl-4-[4-[4-[2-methyl-4-[(1R)-1-[(3R)-5-oxopyrrolidin-3-yl]ethoxy]pyrazolo[4,3-c]pyridin-6-yl]pyrazol-1-yl]-cyclohexyl]piperazin-2-one] | 
8 |  |  |  | > 50 | > 50 | 0.831 | C[C@@H](Oc1nc(-c2cc3nn(C)cc3c(=O)[nH]2)cc2nn(C)cc12)[C@H]1CNC(=O)C1 [Example 13, 2-Methyl-6-[2-methyl-4-[(1R)-1-[(3R)-5-oxopyrrolidin-3-yl]ethoxy]pyrazolo[4,3-c]pyridin-6-yl]-5H-pyrazolo[4,3-c]pyridin-4-one] | 
9 |  |  |  | 40.8 |  | 0.0421 | C[C@@H](Oc1cc(-c2ccn(C)n2)cc2nn(C)cc12)[C@H]1CNC(=O)C1 [Example 14, (4R)-4-[(1R)-1-[2-methyl-6-(1-methylpyrazol-3-yl)indazol-4-yl]oxyethyl]-pyrrolidin-2-one] | 
10 |  |  |  | 10.1 | 33.4 | 0.0187 | C[C@@H](Oc1cc(-c2cnn(CCC(F)(F)F)c2)cc2nn(C)cc12)[C@H]1CNC(=O)C1 [Example 15, (4R)-4-[(1R)-1-[2-Methyl-6-[1-(3,3,3-trifluoropropyl)pyrazol-4-yl]indazol-4-yl]oxyethyl]pyrrolidin-2-one] | 
11 |  |  |  | 10.6 | > 50 | 0.0065 | C[C@@H](Oc1cc(-c2n[nH]c3ccc(C#N)cc23)cc2nn(C)cc12)[C@H]1CNC(=O)C1 [Example 16, 3-[2-methyl-4-[(1R)-1-[(3R)-5-oxopyrrolidin-3-yl]-ethoxy]indazol-6-yl]-1H-indazole-5-carbonitrile] | 
12 |  |  |  | 1.61 | > 50 | 0.0316 | Cc1nccn1Cc1ccc(-c2cc3nn(C)cc3c(O[C@H](C)[C@H]3CNC(=O)C3)n2)cc1 [Example 17] | 
13 |  |  |  | 3.88 | > 50 | 0.0245 | C[C@@H](Oc1cc(-c2ccc(N3CCCS3(=O)=O)cc2)cc2nn(C)cc12)[C@H]1CNC(=O)C1 [Example 33] | 
14 |  |  |  | 8.95 | 31.4 | 0.0343 | C[C@@H](Oc1cc(-c2cnn(C(F)F)c2)cc2nn(C)cc12)[C@H]1CNC(=O)C1 [Example 40, (4R)-4-[(1R)-1-[6-[1-(difluoromethyl)pyrazol-4-yl]-2-methyl-indazol-4-yl]oxyethyl]pyrrolidin-2-one] | 
15 |  |  |  | 15.1 | > 50 | 0.0649 | C[C@@H](Oc1cc(-c2cnc3ccc(C#N)cn23)cc2nn(C)cc12)[C@H]1CNC(=O)C1 [Example 43, 3-[2-methyl-4-[(1R)-1-[(3R)-5-oxopyrrolidin-3-yl]ethoxy]indazol-6-yl]imidazo[1,2-a]pyridine-6-carbonitrile] | 
16 |  |  |  | 4.77 | 26 | 0.0067 | C[C@@H](Oc1cc(-c2cnn(C3CCOCC3)c2)cc2nn(C)cc12)[C@H]1CNC(=O)C1 [Example 47, (4R)-4-[(1R)-1-[2-methyl-6-(1-tetrahydropyran-4-ylpyrazol-4-yl)indazol-4-yl]oxyethyl]pyrrolidin-2-one] | 
17 |  |  |  | 16.9 | > 50 | 0.0556 | C[C@@H](Oc1cc(-c2cc3cccc(Cl)c3[nH]2)cc2nn(C)cc12)[C@H]1CNC(=O)C1 [Example 48, (4R)-4-[(1R)-1-[6-(7-chloro-1H-indol-2-yl)-2-methyl-indazol-4-yl]oxyethyl]-pyrrolidin-2-one] | 
18 |  |  |  | 9.52 | 48 | 0.0554 | C[C@@H](Oc1nc(-c2ccc(C3CC3)nc2)cc2nn(C)cc12)[C@H]1CNC(=O)C1 [Example 50, (4R)-4-[(1R)-1-[6-(6-Cyclopropyl-3-pyridyl)-2-methyl-pyrazolo[4,3-c]pyridine-4-yl]oxyethyl]pyrrolidin-2-one] | 
19 |  |  |  | 34.1 | > 50 |  | COc1ccc2[nH]cc(-c3cc4nn(C)cc4c(O[C@H](C)[C@H]4CNC(=O)C4)n3)c2c1 [Example 53, (4R)-4-[(1R)-1-[6-(5-methoxy-1H-indol-3-yl)-2-methyl-pyrazolo[4,3-c]pyridin-4-yl]oxyethyl]pyrrolidin-2-one] | 
20 |  |  |  | 16 | > 50 | 0.0892 | Cc1ccc(-c2cc3nn(C)cc3c(O[C@H](C)[C@H]3CNC(=O)C3)n2)s1 [Example 54, (4R)-4-[(1R)-1-[2-methyl-6-(5-methyl-2-thienyl)pyrazolo-[4,3-c]pyridin-4-yl]oxyethyl]-pyrrolidin-2-one] | 
21 |  |  |  | 7.78 | > 50 |  | C[C@@H](Oc1nc(-c2cnn(C3CCN(C)CC3)c2)cc2nn(C)cc12)[C@H]1CNC(=O)C1 [Example 82, (4R)-4-[(1R)-1-[2-Methyl-6-[1-(1-methyl-4-piperidyl)pyrazol-4-yl]pyrazolo [4,3-c]pyridin-4-yl]oxyethyl]pyrrolidin-2-one] | 

Row | Compound | IC50 (FLT3; read-out: IC50 in μM (FLT3-Inhibition)) [µM] | IC50 ([1]; read-out: IC50 in μM (AURB-Inhibition)) [µM] | IC50 ([2]; read-out: IC50 in μM (SYK-Inhibition)) [µM] | IC50 (FLT3; [3]) [µM] | IC50 [1, 4] [µM] | IC50 [2, 5] [µM] | IC50 ([1]; read-out: AURB-inhibition IC50-value) [µM]
22 | COc1cc(-c2cc3nn(C)cc3c(O[C@H](C)[C@H]3CNC(=O)C3)n2)ccc1OC1CCOCC1 [Example 73, (4R)-4-[(1R)-1-[6-(3-Methoxy-4-tetrahydropyran-4-yloxy-phenyl)-2-methyl-pyrazolo[4,3-c]pyridin-4-yl]oxyethyl]pyrrolidin-2-one] |  |  |  | 4.17 |  |  | 49.1
